Target: T1, Gag-Pol polyprotein [588-1027]/[588-1147] (Human immunodeficiency virus 1, UniProt P04585)
T1 construct: 588-1027; 588-1147
Assay: HIV-1 RT Assay
Details: pH 8; 37 °C

## CCc1c(C)nc(O)c(N)c1Cc1cc(C)cc(C)c1 [3-amino-4-[(3,5-dimethylphenyl)methyl]-5-ethyl-6-methyl-1,2-dihydropyridin-2-one]
  IC50: 100 nM

## CCc1c(C)nc(O)c(N)c1C(=O)c1cc(C)cc(C)c1 [3-amino-4-[(3,5-dimethylphenyl)carbonyl]-5-ethyl-6-methyl-1,2-dihydropyridin-2-one]
  IC50: 100 nM

## CCc1c(C)[nH]c(=O)c([N+](=O)[O-])c1Sc1cc(C)cc(C)c1 [4-[(3,5-dimethylphenyl)sulfanyl]-5-ethyl-6-methyl-3-nitro-1,2-dihydropyridin-2-one]
  IC50: 30 nM

From BindingDB's records for doi:10.1021/jm0009437 (Institut Curie, 2000)
